Experimental findings from ChEMBL document CHEMBL4477198, “Metabolites from the Fungal Endophyte Aspergillus austroafricanus in Axenic Culture and in Fungal-Bacterial Mixed Cultures” (J Nat Prod, 2016) are described below.

Calls of active or inactive are those of the source. No cut-off for these calls is given here.

For assay [1], the system named is Mycobacterium tuberculosis. The assay can be described thus: Antibacterial activity against Mycobacterium tuberculosis H37Rv by broth microdilution method. It is filed as functional.
The next assay relates to Bacillus subtilis. The assay can be described thus: Antibacterial activity against Bacillus subtilis 168 trpC2 by broth microdilution method. The class given is functional. Background: Broth dilution looks for growth in wells or tubes with falling amounts of substance.
For another assay, the system named is L5178Y. Description: Cytotoxicity against mouse L5178Y cells by MTT assay. It is filed as functional, cell-based.
Another assay concerns Staphylococcus aureus. The assay can be described thus: Antibacterial activity against Staphylococcus aureus ATCC 700699 by broth microdilution method. It is filed as functional.

One may read the MIC as the least concentration at which growth counts as inhibited. Low values mean inhibition by little substance, high ones a need for much substance. Turning to `Cc1cc(O)cc(Oc2cc(C)cc(O)c2)c1` [DIORCINOL], the result in assay [1] was inactive. This compound also showed a minimal inhibitory concentration (MIC) against Bacillus subtilis of 34.8 µM.

The term EC50 denotes the midpoint of the concentration-response curve. In the assay on L5178Y, `CC(C)[C@@H](C)/C=C/[C@@H](C)[C@H]1CC[C@H]2C3=CC=C4C[C@@H](O)CC[C@]4(C)[C@H]3CC[C@]12C` [ERGOSTEROL] gave an EC50 of 12.6 µM. In assay [1], the outcome was inactive.

For the compound `COc1c(N2C[C@@H]3CCCN[C@@H]3C2)c(F)cc2c(=O)c(C(=O)O)cn(C3CC3)c12` [MOXIFLOXACIN], in the assay with Staphylococcus aureus, the minimum inhibitory concentration (MIC) is 1.56 µg/mL.

`COc1c(O)c(O)c(O)c2oc3c(Oc4c(O)cc(C)c5c(=O)c6c(O)cc(CO)cc6oc45)c(O)cc(C)c3c(=O)c12`: the result in assay [1] was inactive.

For the compound `CC(C)(O)CCC[C@](C)(O)c1ccc(C(=O)O)cc1`, in assay [1], the outcome was inactive.

On to `CC1(C)CCC[C@](C)(c2ccc(C(=O)O)cc2O)O1`, for which, in assay [1], the result was inactive.

On to `O=c1cc(CO)c(O)co1`, for which the result in assay [1] was inactive.

`Cc1cc(O)c(O)c(Oc2cc(C)cc(O)c2O)c1` returned an MIC in the assay with Staphylococcus aureus of 25 µM. Moreover, the result in assay [1] was inactive.

Consider `Cc1cc(O)c(Oc2cc(C)cc(O)c2O)c(O)c1`, for which the MIC against Staphylococcus aureus is 25 µM. For the same compound, the result in assay [1] was inactive.

Turning to `C=CC(C)(C)[C@@]12C=C(OC)C(=O)N3/C(=C/c4c[nH]cn4)C(=O)N[C@]31N(OC)c1ccccc12`, in assay [1], the result was inactive.

`COC(=O)c1c(O)ccc2oc3cc(CO)cc(O)c3c(=O)c12`: the outcome in assay [1] was inactive.

For the compound `Cc1cc(O)cc(Oc2cc(C)c(C(N)=O)c(O)c2)c1`, the result in assay [1] was inactive.

Compound `O=C(O)c1cn(C2CC2)c2cc(N3CCNCC3)c(F)cc2c1=O` [CIPROFLOXACIN] came in with a minimum inhibitory concentration (MIC) in the assay on Bacillus subtilis of 0.008 µg/mL.
